Article PMC8688955 (Frontiers in Pharmacology, 2021)
Several values for one entry are separate records, joined by “and”; a condition that tells them apart may be missing. Equal entries are not always repeated. Where two headings read alike, the source gives them in different places.

Key:
CI-AMPARs [1] = molecular target: T1, CI-AMPARs (Rattus norvegicus, UniProt P19491, Q607R); assay: Whole-cell patch-clamp of kainate-induced currents in isolated hippocampal CA1 pyramidal neurons; type: cell-based, Wistar rat; settings: for inhibition at 300 µM: 300 µM compound, read-out: percentage of inhibition at 300-µM concentration; for CI-AMPARs % inhibition at 100 µM: 100 µM compound; for CI-AMPARs % inhibition at 100 µM / inhibition at 100 µM: currents induced by 100 µM kainate, mean ± SD, N = 5; for inhibition at 100 µM: read-out: CI-AMPARs % inhibition at 100 µM, 100 µM compound; for IC50: kainate-induced currents; for Activity drop in the presence of cyclothiazide: 50 µM kainate; for decrease in the % of inhibition with the increase in agonist concentration: 50 vs 500 µM kainate; for Difference in the % of inhibition in coapplication and preapplication protocols: coapplication with kainate vs preapplication without kainate
T1 construct: activity against native calcium-permeable AMPA receptors (CP-AMPARs) and calcium-impermeable AMPA receptors (CI-AMPARs); endogenous in cells; host or cells: acutely isolated pyramidal neurons from the CA1 area of Wistar rat hippocampal slices
Method: All experimental procedures were approved by the Animal Care and Use Committee of the I.M. Sechenov Institute of Evolutionary Physiology and Biochemistry of the Russian Academy of Sciences. Wistar rats (13–19 days old) were anesthetized with sevoflurane and then decapitated. Maximum effort was made to minimize the number of animals used. Brains were removed quickly and cooled to 2–4°C in an ice bath. […] The antagonism of CI-AMPARs was studied on pyramidal neurons from the CA1 area of the hippocampus.
Series resistance of about 20 MΩ was compensated by 70–80% and monitored during experiments. Currents were recorded using an EPC-8 amplifier (HEKA Electronics, Lambrecht, Germany), filtered at 5 kHz, sampled, and stored on a personal computer. Drugs were applied using the RSC-200 perfusion system (BioLogic Science Instruments, Claix, France) under computer control. The solution exchange time in the whole-cell mode was 50–60 ms. […] The pipette solution contained (in mM) CsF 100, CsCl 40, NaCl 5, CaCl2 0.5, EGTA 5, and HEPES 10 (pH was adjusted to 7.2 with CsOH). Experiments were performed at room temperature (22–24°C). […] Lamotrigine, topiramate, levetiracetam, felbamate, carbamazepine, tiagabin, vigabatrin, zonisamide, and gabapentin were purchased from Tocris Bioscience (Bristol, United Kingdom). Perampanel was from MedChemExpress (Stockholm, Sweden). Kinetics of transient processes of more than 20-ms duration was approximated by exponential functions. Experiments were performed at −80 mV holding voltage. All experimental data are presented as mean ± SD estimated from at least four experiments. Significance of the effects was tested with paired t test. Differences were considered significant at p < 0.05. 3D structures of compounds were calculated by the ZMM software (zmmsoft.ca).

CP-AMPARs = assay: Whole-cell patch-clamp of kainate-induced currents in isolated striatal giant interneurons; type: cell-based, Wistar rat; settings: for CP-AMPARs % inhibition at 100 µM: 100 µM compound, currents induced by 100 µM kainate, mean ± SD, N = 5; for % block: IEM-1925, […], representative recording, Figure 3E; for % inhibition: […] IEM-1925; for IC50: read-out: IC50 CP-AMPARs, kainate-induced currents
Method: All experimental procedures were approved by the Animal Care and Use Committee of the I.M. Sechenov Institute of Evolutionary Physiology and Biochemistry of the Russian Academy of Sciences. Wistar rats (13–19 days old) were anesthetized with sevoflurane and then decapitated. Maximum effort was made to minimize the number of animals used. Brains were removed quickly and cooled to 2–4°C in an ice bath. […] Single neurons were freed from slices by vibrodissociation ([Vorobjev, 1991]). The antagonism of CP-AMPARs was studied on striatal giant interneurons ([Bernard et al., 1997]; [Gotz et al., 1997]), which were identified by their shape and size. […] The antagonism of CI-AMPARs was studied on pyramidal neurons from the CA1 area of the hippocampus.
Series resistance of about 20 MΩ was compensated by 70–80% and monitored during experiments. Currents were recorded using an EPC-8 amplifier (HEKA Electronics, Lambrecht, Germany), filtered at 5 kHz, sampled, and stored on a personal computer. Drugs were applied using the RSC-200 perfusion system (BioLogic Science Instruments, Claix, France) under computer control. The solution exchange time in the whole-cell mode was 50–60 ms. The extracellular solution contained (in mM) NaCl 143, KCl 5, MgCl2 2.0, CaCl2 2.5, D-glucose 18, and HEPES 10 (pH was adjusted to 7.3 with HCl). The pipette solution contained (in mM) CsF 100, CsCl 40, NaCl 5, CaCl2 0.5, EGTA 5, and HEPES 10 (pH was adjusted to 7.2 with CsOH). Experiments were performed at room temperature (22–24°C). […] Lamotrigine, topiramate, levetiracetam, felbamate, carbamazepine, tiagabin, vigabatrin, zonisamide, and gabapentin were purchased from Tocris Bioscience (Bristol, United Kingdom). Perampanel was from MedChemExpress (Stockholm, Sweden). Kinetics of transient processes of more than 20-ms duration was approximated by exponential functions. Experiments were performed at −80 mV holding voltage. All experimental data are presented as mean ± SD estimated from at least four experiments. Significance of the effects was tested with paired t test. Differences were considered significant at p < 0.05. 3D structures of compounds were calculated by the ZMM software (zmmsoft.ca).

hGluA1-4 receptors = test system: hGluA1-4 receptors; design: method as in Fukushima et al. (2020); settings: ref Fukushima et al. (2020); cited from earlier work
CI-AMPARs [2] = molecular target: T1, CI-AMPARs; design: method as in Barygin, 2016; settings: ref Barygin, 2016, cited from earlier work
[3] = double-pulse protocol, 30-s pause

T1 sequence (P19491 22-883 Q607R): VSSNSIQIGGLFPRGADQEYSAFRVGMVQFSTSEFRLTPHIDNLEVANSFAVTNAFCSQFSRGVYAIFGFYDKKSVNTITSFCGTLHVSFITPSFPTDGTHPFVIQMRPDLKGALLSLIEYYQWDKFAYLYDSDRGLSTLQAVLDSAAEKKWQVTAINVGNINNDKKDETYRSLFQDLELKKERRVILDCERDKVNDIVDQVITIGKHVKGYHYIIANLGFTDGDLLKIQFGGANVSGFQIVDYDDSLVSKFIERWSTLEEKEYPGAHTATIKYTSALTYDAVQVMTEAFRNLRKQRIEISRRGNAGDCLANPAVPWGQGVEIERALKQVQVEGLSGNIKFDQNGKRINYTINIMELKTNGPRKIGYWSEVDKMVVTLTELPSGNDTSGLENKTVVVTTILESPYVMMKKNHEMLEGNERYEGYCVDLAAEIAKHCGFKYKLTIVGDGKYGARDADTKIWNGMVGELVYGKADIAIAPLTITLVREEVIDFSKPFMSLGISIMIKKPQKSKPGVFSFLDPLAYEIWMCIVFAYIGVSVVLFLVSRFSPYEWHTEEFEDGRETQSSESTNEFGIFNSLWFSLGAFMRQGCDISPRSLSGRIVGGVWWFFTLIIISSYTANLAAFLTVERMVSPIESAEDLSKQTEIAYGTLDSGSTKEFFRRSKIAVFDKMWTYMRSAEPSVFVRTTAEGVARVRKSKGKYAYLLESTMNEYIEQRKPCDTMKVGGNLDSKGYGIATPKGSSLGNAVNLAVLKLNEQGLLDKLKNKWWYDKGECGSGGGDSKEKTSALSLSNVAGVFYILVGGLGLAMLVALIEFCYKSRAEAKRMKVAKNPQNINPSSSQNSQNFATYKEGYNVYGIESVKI

## O=C1NC(=O)C(Cc2ccccc2)N1 (stereo not drawn) [5-benzylhydantoin]
CI-AMPARs [1]
  inhibition at 300 µM: ≤ 20%

## NC(=O)N1c2ccccc2C=Cc2ccccc21 [Carbamazepine]
CP-AMPARs; −80 mV
  CP-AMPARs % inhibition at 100 µM: 15 ± 4%
CP-AMPARs; −80 mV, listed as carbamazepine
  CP-AMPARs % inhibition at 100 µM: ≤ 20%
hGluA1-4 receptors
  activity against hGluA1-4 receptors: did not find significant activity
CI-AMPARs [1]; −80 mV
  CI-AMPARs % inhibition at 100 µM: 11 ± 3%
  inhibition at 100 µM: ≤ 20%

## NS(=O)(=O)c1cc2c(cc1Cl)NC(C1CC3C=CC1C3)NS2(=O)=O (stereo not drawn) [Cyclothiazide]
CI-AMPARs [1]; Kainate, 50 μM +/- cyclothiazide, 100 μM, representative recording, Figure 5A
  fold potentiation: 7.4 fold
CI-AMPARs [1]; read-out: increase of the stationary current induced by 50 µM kainate, 100 µM cyclothiazide
  fold induction at 100 µM: 8 ± 2

## NC(=O)OCC(COC(N)=O)c1ccccc1 [Felbamate]
CP-AMPARs; −80 mV
  CP-AMPARs % inhibition at 100 µM: 10 ± 4%
CP-AMPARs; −80 mV, listed as felbamate
  CP-AMPARs % inhibition at 100 µM: ≤ 20%
CI-AMPARs [1]; −80 mV
  CI-AMPARs % inhibition at 100 µM: 16 ± 4%
  inhibition at 100 µM: ≤ 20%

## CC1=NN=C(c2ccc(N)cc2)c2cc3c(cc2C1)OCO3 [GYKI-52466]
CI-AMPARs [2]
  displacement of slow negative allosteric antagonist perampanel: able to displace
CI-AMPARs [1]; 200 µM GYKI-52466
  effect on the slow phase of recovery from 50 µM phenytoin: remains unchanged

## NCC1(CC(=O)O)CCCCC1 [Gabapentin]
CP-AMPARs; −80 mV
  CP-AMPARs % inhibition at 100 µM: 12 ± 5%
CP-AMPARs; −80 mV, listed as gabapentin
  CP-AMPARs % inhibition at 100 µM: ≤ 20%
hGluA1-4 receptors
  activity against hGluA1-4 receptors: did not find significant activity
CI-AMPARs [1]; −80 mV
  CI-AMPARs % inhibition at 100 µM: 20 ± 6%
  inhibition at 100 µM: ≤ 20%

## NCCCCCNC1(c2ccccc2)CCCCC1 [IEM-1925]
CP-AMPARs; 6 µM IEM-1925, double-pulse protocol, n = 4
  slow component of the response to testing kainate application in the trapping protocol: 1,800 ± 400 ms
CP-AMPARs; 50 vs 500 µM kainate, striatal CP-AMPARs
  Activity drop at high (500 µM) kainate concentration: No
CP-AMPARs; Ka 50 μM
  % block: 49%
CP-AMPARs; Ka 500 μM
  % block: 57%
CP-AMPARs; 50 µM kainate
  % inhibition: 48 ± 3%
CP-AMPARs; 500 µM kainate
  % inhibition: 55 ± 5%
CP-AMPARs; coapplication with kainate vs preapplication without kainate, striatal CP-AMPARs
  Difference in the % of inhibition in coapplication and preapplication protocols: inhibited only open channels and Yes
CP-AMPARs; double-pulse protocol, 30-s pause, striatal giant interneuron
  Trap in kainate 100 µM: Yes
CP-AMPARs; double-pulse protocol, striatal giant interneuron
  Trap in kainate 500 µM: Yes
CP-AMPARs; Hill equation, −80 mV
  IC50: 1.3 ± 0.4 µM
CI-AMPARs [1]
  More active against CI-AMPARs: dramatically more active against CP-AMPARs and No
CI-AMPARs [1]; Hill equation, −80 mV
  IC50: 180 ± 30 µM

## CCCC(C)C1(CC)C(=O)NC(=O)NC1=O (stereo not drawn) [Pentobarbital]
CP-AMPARs; Hill equation, −80 mV
  IC50: 80 ± 13 µM
CI-AMPARs [1]
  % block: 56% and 42%
  Activity drop at high (500 µM) kainate concentration: more active in the case of lower kainate concentration and Yes
  More active against CI-AMPARs: Yes
  decrease in the % of inhibition with the increase in agonist concentration: 10–15%
  Difference in the % of inhibition in coapplication and preapplication protocols: more active in the coapplication protocol and Yes
CI-AMPARs [1]; 14 µM pentobarbital
  effect on maximal response to kainate: decreased the maximal response to kainate
CI-AMPARs [1]; 100 µM cyclothiazide
  Activity drop in the presence of cyclothiazide: Yes
CI-AMPARs [1]; 100 µM cyclothiazide, listed as pentobarbital
  Activity drop in the presence of cyclothiazide: significantly attenuated in the presence of cyclothiazide
CI-AMPARs [1]; Pentobarbital, 50 μM, Kainate, 50 μM + cyclothiazide, 100 μM, representative recording, Figure 5E
  % block: 27%
CI-AMPARs [1]; Pentobarbital, 50 μM, Kainate, representative recording, Figure 5D
  % block: 75%
CI-AMPARs [1]; [3]
  Trap in kainate 100 µM: Yes
CI-AMPARs [1]; Hill equation, −80 mV
  IC50: 14 ± 3 µM
CI-AMPARs [1]; pH 7.4 vs 9.0
  pH-dependence: Yes
CI-AMPARs [1]; pentobarbital 30 μM, pH 7.4, Kainate, 100 μM, representative recording, Figure 10B
  % block: 65%
CI-AMPARs [1]; pentobarbital 30 μM, pH 9.0, Kainate, 100 μM, representative recording, Figure 10B
  % block: 27%

## N#Cc1ccccc1-c1cc(-c2ccccn2)cn(-c2ccccc2)c1=O [Perampanel]
CP-AMPARs
  IC50: 0.06 ± 0.006 µM
CI-AMPARs [2]; isolated CA1 pyramidal neurons
  reduction in activity by cyclothiazide: ca. 20 fold
CI-AMPARs [2]
  Activity drop in the presence of cyclothiazide: Yes
CI-AMPARs [2]; listed as perampanel
  Activity drop in the presence of cyclothiazide: less active in the presence of cyclothiazide
CI-AMPARs [1]
  Activity drop at high (500 µM) kainate concentration: more active in the case of lower kainate concentration and Yes
  More active against CI-AMPARs: equipotently inhibited both receptor subtypes and No
  decrease in the % of inhibition with the increase in agonist concentration: 30–40%
  Difference in the % of inhibition in coapplication and preapplication protocols: No
  IC50: 0.063 ± 0.008 µM
CI-AMPARs [1]; 500 nM perampanel, double-pulse protocol, n = 4
  time constant τ of the response to testing kainate application in the trapping protocol: 41 ± 12 ms
CI-AMPARs [1]; listed as perampanel
  Difference in the % of inhibition in coapplication and preapplication protocols: equally effective in preapplication and coapplication protocols
CI-AMPARs [1]; [3]
  Trap in kainate 100 µM: No
  Trap in kainate 500 µM: No

## Cc1ccsc1C(=CCCN1CCCC(C(=O)O)C1)c1sccc1C (stereo not drawn) [Tiagabin]
CP-AMPARs; −80 mV
  CP-AMPARs % inhibition at 100 µM: 10 ± 2%
CP-AMPARs; −80 mV, listed as tiagabin
  CP-AMPARs % inhibition at 100 µM: ≤ 20%
CI-AMPARs [1]; −80 mV
  CI-AMPARs % inhibition at 100 µM: 14 ± 2%
  inhibition at 100 µM: ≤ 20%

## C=CC(N)CCC(=O)O (stereo not drawn) [Vigabatrin]
CP-AMPARs; −80 mV
  CP-AMPARs % inhibition at 100 µM: 10 ± 3%
CP-AMPARs; −80 mV, listed as vigabatrin
  CP-AMPARs % inhibition at 100 µM: ≤ 20%
CI-AMPARs [1]; −80 mV
  CI-AMPARs % inhibition at 100 µM: 8 ± 1%
CI-AMPARs [1]; −80 mV, listed as vigabatrin
  CI-AMPARs % inhibition at 100 µM: ≤ 20%

## NS(=O)(=O)Cc1noc2ccccc12 [Zonisamide]
CP-AMPARs; −80 mV
  CP-AMPARs % inhibition at 100 µM: 11 ± 3%
CP-AMPARs; −80 mV, listed as zonisamide
  CP-AMPARs % inhibition at 100 µM: ≤ 20%
CI-AMPARs [1]; −80 mV
  CI-AMPARs % inhibition at 100 µM: 11 ± 2%
  inhibition at 100 µM: ≤ 20%

## CCC1(C)CC(=O)NC1=O (stereo not drawn) [ethosuximide]
CI-AMPARs [1]
  inhibition at 300 µM: ≤ 20%

## O=C1CNC(=O)N1 [hydantoin]
CI-AMPARs [1]
  inhibition at 300 µM: ≤ 20%

## COC[C@@H](NC(C)=O)C(=O)NCc1ccccc1 [lacosamide]
hGluA1-4 receptors
  activity against hGluA1-4 receptors: did not find significant activity

## CCC1(c2ccccc2)C(=O)NC(=O)NC1=O [phenobarbital]
hGluA1-4 receptors
  activity against hGluA1-4 receptors: did not find significant activity

## CCC1(c2ccccc2)C(=O)NCNC1=O [primidone]
CI-AMPARs [1]
  inhibition at 300 µM: ≤ 20%

## CCCC(CCC)C(=O)O [valproate]
hGluA1-4 receptors
  activity against hGluA1-4 receptors: did not find significant activity
